Data: patent US20100004259A1, “Tartrate Salt of (7S)-7-[(5-Fluoro-2-Methyl-Benzyl)oxy]-2-[(2R)-2-Methylpiperazin-1-YL]-6,7-Dihydro-5H-Cyclopenta[B]Pyridine” (Pfizer Inc., priority 2006, published 2010)

Experiments:
[1] = hygroscopicity by dynamic vapor sorption; type: physicochemical
Method: Hygroscopicity was assessed using a dynamic vapor sorption technique in which an accurately weighed sample is subjected to progressively changing water vapor pressure while simultaneously recording the weight change. The experiment was conducted isothermally at 25° C.
Less than 0.5% increase in weight was detected at 90±2% relative humidity during an isothermal (25.1±0.1° C.) moisture sorption analysis conducted from approximately 1% to 90% (±2%) humidity. […] The amount of water vapor sorption may vary depending on the particle size and surface area of sample.

5HT2a [2] = target: T1, 5HT2a (Homo sapiens, UniProt P28223); experiment: functional activity at the 5-HT2a receptor
Description: (§1) Formula I of the present invention is functionally selective for 5-HT2c against 5-HT2a and 5-HT2b, by virtue of its much greater agonistic potency (lower EC50) for 5-HT2c than that observed for 5-HT2a and/or 5-HT2b or its lack of agonistic activity at 5-HT2a and/or 5-HT2b.

5HT2b [3] = target: T2, 5HT2b (Homo sapiens, UniProt P41595); experiment: receptor binding assay at human 5HT2b receptor; conditions: an amorphous salt of Formula I was tested
Method: (§2) An amorphous salt of Formula I was tested in accordance with the binding assay procedures at human receptors provided in U.S. application Ser. No. 11/395,327, and the following receptor binding data for the compound of Formula I was obtained: […]

5HT2b [4] = target: T2, 5HT2b; experiment: functional activity at the 5-HT2b receptor
Description: as §1

5HT2a [5] = target: T1, 5HT2a; experiment: receptor binding assay at human 5HT2a receptor; conditions: an amorphous salt of Formula I was tested
5HT2c [6] = target: T3, 5HT2c (Homo sapiens, UniProt P28335); experiment: receptor binding assay at human 5HT2c receptor; conditions: an amorphous salt of Formula I was tested
T3 sequence (P28335 33-458): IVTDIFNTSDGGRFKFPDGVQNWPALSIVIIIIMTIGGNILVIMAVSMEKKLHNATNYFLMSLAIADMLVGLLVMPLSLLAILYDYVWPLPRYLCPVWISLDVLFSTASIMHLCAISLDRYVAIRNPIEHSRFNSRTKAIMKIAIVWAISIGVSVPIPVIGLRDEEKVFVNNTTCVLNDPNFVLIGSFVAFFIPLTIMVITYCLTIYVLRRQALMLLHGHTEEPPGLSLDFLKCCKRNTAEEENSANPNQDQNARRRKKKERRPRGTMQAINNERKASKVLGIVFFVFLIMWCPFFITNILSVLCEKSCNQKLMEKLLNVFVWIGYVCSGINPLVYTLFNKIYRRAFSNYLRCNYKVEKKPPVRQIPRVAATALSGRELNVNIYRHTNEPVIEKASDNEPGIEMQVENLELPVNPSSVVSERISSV
Method: as §2

5HT2c [7] = target: T3, 5HT2c; experiment: functional activity at the 5-HT2c receptor
Description: as §1

[8] = cited from earlier work
[9] = cited from earlier work; remark: listed apart in the source

T1 sequence (P28223 whole entry): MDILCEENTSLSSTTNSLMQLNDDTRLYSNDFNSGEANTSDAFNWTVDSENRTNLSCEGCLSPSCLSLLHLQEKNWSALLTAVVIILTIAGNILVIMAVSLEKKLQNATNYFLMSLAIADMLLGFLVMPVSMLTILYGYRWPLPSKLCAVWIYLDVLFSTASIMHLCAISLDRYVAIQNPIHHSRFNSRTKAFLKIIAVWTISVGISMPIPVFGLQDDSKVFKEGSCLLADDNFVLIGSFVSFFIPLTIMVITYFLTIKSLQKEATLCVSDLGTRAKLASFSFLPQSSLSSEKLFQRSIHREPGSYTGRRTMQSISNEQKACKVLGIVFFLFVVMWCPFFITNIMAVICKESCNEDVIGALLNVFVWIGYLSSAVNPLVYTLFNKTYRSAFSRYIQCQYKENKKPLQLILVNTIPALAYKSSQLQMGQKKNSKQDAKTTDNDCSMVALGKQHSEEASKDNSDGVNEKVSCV
T2 sequence (P41595 whole entry): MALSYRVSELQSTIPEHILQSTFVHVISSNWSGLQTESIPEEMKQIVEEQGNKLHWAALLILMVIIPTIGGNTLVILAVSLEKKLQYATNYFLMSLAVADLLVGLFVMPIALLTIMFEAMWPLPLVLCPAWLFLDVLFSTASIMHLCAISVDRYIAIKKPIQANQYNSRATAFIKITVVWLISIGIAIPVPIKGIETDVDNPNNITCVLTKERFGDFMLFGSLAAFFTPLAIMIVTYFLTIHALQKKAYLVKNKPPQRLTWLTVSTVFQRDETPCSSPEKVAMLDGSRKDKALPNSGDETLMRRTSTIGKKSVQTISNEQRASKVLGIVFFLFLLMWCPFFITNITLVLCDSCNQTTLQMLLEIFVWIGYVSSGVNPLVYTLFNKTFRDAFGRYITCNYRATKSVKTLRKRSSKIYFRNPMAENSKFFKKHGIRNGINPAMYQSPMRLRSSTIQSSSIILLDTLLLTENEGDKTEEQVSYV

Question: What does the source list for Cc1ccc(F)cc1CO[C@H]1CCc2ccc(N3CCNC[C@H]3C)nc21.O=C(O)C(O)C(O)C(=O)O [(S)-7-(5-Fluoro-2-methyl-benzyloxy)-2-((R)-2-methyl-piperazin-1-yl)-6,7-dihydro-5H-[1]pyrindine L(+)-tartrate]?
Answer: increase in weight (moisture sorption) ([1]; at 90±2% relative humidity, isothermal (25.1±0.1° C.) moisture sorption from approximately 1% to 90% (±2%) humidity): Less than 0.5%; hygroscopicity assessment ([1]; dynamic vapor sorption, isothermal at 25° C.): non-hygroscopic

Question: Which results are given for Cc1ccc(F)cc1CO[C@H]1CCc2ccc(N3CCNC[C@H]3C)nc21 [Formula I, (7S)-7-[(5-fluoro-2-methyl-benzyl)oxy]-2-[(2R)-2-methylpiperazin-1-yl]-6,7-dihydro-5H-cyclopenta[b]pyridine]?
Answer: functional activity at the 5-HT2a receptor (5HT2a [2]): antagonist or weak partial agonist; Ki (5HT2b [3]): 7.7 nM; functional activity at the 5-HT2b receptor (5HT2b [4]): antagonist; Ki (5HT2a [5]): 4.5 nM; Ki (5HT2c [6]): 1.5 nM; functional activity at the 5-HT2c receptor (5HT2c [7]): potent, high affinity agonist

Question: For O=C1Cc2cc(CCN3CCN(c4nsc5ccccc45)CC3)c(Cl)cc2N1 [Ziprasidone, 5-[2-[4-(1,2-benzisothiazol-3-yl)piperazin-1-yl]ethyl]-6-chloroindolin-2-one], which protein binding [8] is on record?
Answer: The protein binding was “extensive”.

Question: And the half-life ([9]; in vivo)?
Answer: Its half-life is 6 to 7 h.

Question: What about the oral bioavailability ([9]; taken with food) of the same molecule?
Answer: The oral bioavailability was “approximately 60%”.
